Measurements published in paper PMC11833736 (ACS Pharmacology & Translational Science, 2025).
Several values for one entry are separate records, joined by “and”; a condition that tells them apart may be missing. Equal values may be shown once.

How the values were obtained:
SH-SY5Y cells [1] = test: Cytotoxicity, SRB end-point assay, dark or green light; type: cell-based; settings: for EC50: kept in the dark, SRB, normoxic (21% O2)
U-87MG cells = test: Cell fractioning (FractionPREP kit), Ru content by ICP-MS; type: in vitro ADME; settings: 10 μM, 24 h
Procedure: Ru content in different compartments was determined via a FractionPREP Cell Fractionation Kit (Abcam, Cambridge, U.K., no 288085). U-87MG cells were seeded in 25 cm^2 OptiMEM medium (1.5 × 10^6 cells) for 24 h. […] Untreated cells served as control. After 24 h of incubation, the cells were collected, counted, and fractioned according to the manufacturer’s procedure. In short, the cells were collected and centrifuged at 700g for 5 min. The cells were then washed with ice-cold PBS (1 mL) followed by 5 min centrifuging at 700g, and the supernatant was removed. The cell pellet was resuspended in 1 mL of ice-cold PBS, transferred into a 1.5 mL Eppendorf tube, and spun for 5 min at 700g, and the supernatant was removed. The pellet was resuspended in 400 μL of Extraction Buffer III/Cytosol Extraction Buffer Mix [containing 2 μL of dithiothreitol (DTT) and 2 μL of protease inhibitor cocktail per mL]. The cells were mixed well by carefully pipetting up and down (ca. 5 times). The sample was incubated on ice for 20 min with gentle tapping three to four times every 5 min. Afterward, the sample was centrifuged at 700g for 10 min. The supernatant was collected (cytosolic fraction) and kept on ice. The resulting pellet was again resuspended in 400 μL of ice-cold Extraction Buffer IV/Membrane Extraction Buffer-A Mix (containing 2 μL of DTT and 2 μL of protease inhibitor cocktail per mL) and pipetted several times, and the sample was vortexed for 10–15 s to mix well. Then, 22 μL of Lysis Buffer/Membrane Extraction Buffer-B was added and vortexed for 5 s. The samples were incubated for 1 min on ice. Afterward, the sample was vortexed again for 5 s and centrifuged for 5 min at 1000g. The supernatant was immediately transferred to a clean, prechilled 1.5 mL tube and kept on ice (membrane fraction). The pellet was again resuspended in 200 μL of ice-cold Extraction Buffer V/Nuclear Extraction Buffer mix (containing 2 μL of DTT and 2 μL of protease inhibitor cocktail per mL), vortexed for 15 s, and kept on ice for 40 min with constant vortex for 15 s every 10 min. The sample was then microcentrifuged at top speed for 10 min. The resulting supernatant was transferred in a clean, prechilled 1.5 mL tube (nuclear fraction) and kept on ice. The remaining cytoskeletal fraction was dissolved in 100 μL of 0.2% SDS containing 10 mM DTT solution. All samples were digested over 65% HNO3 (0.5 mL) in an oven hot oven (90 °C). The solution was diluted with Milli-Q water to 10 mL, and the Ru content [ppb] was measured by ICP-MS.

SH-SY5Y cells [2] = test: Ru cellular uptake by ICP-MS, dark or green light; type: in vitro ADME; settings: kept in the dark
Procedure: These surprising results led us to further investigate whether the uptake of the respective compounds plays a pivotal role in the alternation of the proliferation. […] The complex was allowed to incubate for 24 h after irradiation before the ruthenium cellular content was analyzed by ICP-MS. […] We finally decided to incubate the SH-SY5Y cells with the EC50 values obtained from the cytotoxicity experiment using the U-87MG cell, as those procedures would allow one to observe the effect of the prodrug on the healthy neuron-like cells when treated with the phototoxic compound dose. […] Overall, cellular uptake in neuron-like SH-SY5Y cells followed the same trends as those for GBM cells U-87MG in the dark, while uptake was much higher after light activation.
(§1) 1 mL of SH-SY5Y cells were seeded in 12-well plates (Greiner, No. 665180; 500.000 cells per well). […] After an additional 24 h of incubation, the cells were trypsined, collected, and centrifuged. The resulting cell pellet was dissolved in 1 mL of PBS and counted via a BioRad TC20 automated cell counter. Afterward, the solution was centrifuged and washed again with PBS with subsequent centrifuging two more times. The resulting cell pellet was digested in 0.5 mL of HNO3 overnight in a hot oven (90 °C). The solution was diluted with Milli-Q water to 10 mL, and the Ru and Ca content [ppb] was measured via ICP-MS.

SH-SY5Y cells [3] = test: Intracellular Ca content by ICP-MS, dark or green light; type: cell-based; settings: for Ca uptake, Dark: kept in the dark
Procedure: Six hours after compound addition, the cells were irradiated with green light or kept in the dark. Intracellular Ca^2+ levels were then assessed by ICP-MS 24 h after light activation. The NMDA and α-amino-3-hydroxy-5-methyl-4-isoxazole propionic acid (AMPA) receptors being glutamate-gated cation channels allow for an increase of calcium permeability of the neuron membrane; we also used L-glutamic acid (GA, 10 μM), a known NMDA and AMPA activator, as positive control in this assay.
as §1

[4] = Stability in the dark in the presence of L-glutathione (UV-vis); type: physicochemical; settings: water, 37 °C, 500 μM L-glutathione, spectra after 2 and 24 h
Procedure: The synthesis and characterization of all three complexes have been described earlier and can be found in refs ([56]) and ([57]). In water or OptiMEM cell medium, the complexes were also previously found to be stable in the dark for at least 24 h at 37 °C. Upon blue or green light irradiation (λ = 452 or 517 nm), they are activated by photosubstitution of the thioether ligand to afford the aqua ruthenium complex and the free thioether ligand.[56] […] The UV–vis spectra were then recorded after 2 and 24 h separately. […] Additionally, we could not observe any color change, which is typical when one of the ligands is exchanged against another one.
UV–vis spectroscopy experiments were performed on a Cary 60 Varian spectrometer equipped with a temperature control set to 310 K and a magnetic stirrer. The measurements were performed in a quartz cuvette containing 3 mL of solution. […] Then, the UV–vis spectrum was recorded without the presence of GSH. After 4 min, GSH was added (0.5 mM) and UV–vis spectra were recorded directly after and after 2 and 24 h, while the vial was kept in the dark and at 37 °C.

Row | Structure (SMILES) | concentration required to block cell growth (SH-SY5Y cells [1]; in the dark) [µM] | EC50 (SH-SY5Y cells [1]) [µM] | Ru content, Cytosol (U-87MG cells) | Ru content, Membrane (U-87MG cells) | Ru content, Nucleus (U-87MG cells) | Ru uptake, Dark (SH-SY5Y cells [2]; 20 μM) | Ca uptake, Dark (SH-SY5Y cells [3]; 20 μM) | stability in the dark with GSH (UV-vis, in words) [4] | Ru uptake, Dark (SH-SY5Y cells [2]; 10 μM) | increase of intracellular Ca^2+ content after light irradiation (SH-SY5Y cells [3]; 10 μM, green light versus dark) [fold] | Ca uptake, Dark (SH-SY5Y cells [3]; 10 μM)
1 | CSCCO.F[P-](F)(F)(F)(F)F.F[P-](F)(F)(F)(F)F.[Ru+2].c1ccc(-c2cccc(-c3ccccn3)n2)nc1.c1ccc2cc(-c3cc4ccccc4cn3)ncc2c1 [[2](PF6)2] | > 40 | > 100 | 0.18 ng Ru/mio. cells and 0.18 ± 0.06 ng Ru/mio. cells | 0.83 ng Ru/mio. cells and 0.83± 0.57 ng Ru/mio. cells | 0.03 ± 0.03 ng Ru/mio. cells | 1.02 ± 0.63 ng Ru/mio. cells and 1.0 ng Ru/mio. cells | 279.12 ± 56 ng Ca/mio. cells and 279 ng Ca/mio. cells | no isosbestic points suggesting ligand exchange were observed | – | – | –
2 | CSCCO.F[P-](F)(F)(F)(F)F.F[P-](F)(F)(F)(F)F.[Ru+2].c1ccc(-c2cccc(-c3ccccn3)n2)nc1.c1ccc2cc(Nc3cc4ccccc4cn3)ncc2c1 [[3](PF6)2] | – | 34.2 | 0.07 ± 0.05 ng Ru/mio. cells | 0.88 ng Ru/mio. cells and 0.88 ± 0.25 ng Ru/mio. cells | 0.17 ng Ru/mio. cells and 0.17 ± 0.06 ng Ru/mio. cells | – | – | no isosbestic points suggesting ligand exchange were observed | 2.44 ± 0.63 ng Ru/mio. cells and 2.4 ng Ru/mio. cells | 3 | 163.37 ± 93 ng Ca/mio. cells and 163 ng Ca/mio. cells
